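Test compounds were applied to cells in 96-well plates for 48 hours at 5 doses. The concentration for 50% growth inhibition is given as GI50. The concentration for full growth arrest is given as TGI.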
Key:
Test in all cases: DTP human tumour cell line panel, 48 h
786-0 renal = tested on: 786-0 renal
A498 renal = tested on: A498 renal
A549 NSCLC = tested on: A549 NSCLC
ACHN renal = tested on: ACHN renal
BT-549 breast = tested on: BT-549 breast
CAKI-1 renal = tested on: CAKI-1 renal
CCRF-CEM leukemia = tested on: CCRF-CEM leukemia
COLO 205 colon = tested on: COLO 205 colon
DU-145 prostate = tested on: DU-145 prostate
EKVX NSCLC = tested on: EKVX NSCLC
HCC-2998 colon = tested on: HCC-2998 colon
HCT-116 colon = tested on: HCT-116 colon
HCT-15 colon = tested on: HCT-15 colon
HL-60(TB) leukemia = tested on: HL-60(TB) leukemia
HOP-62 NSCLC = tested on: HOP-62 NSCLC
HOP-92 NSCLC = tested on: HOP-92 NSCLC
HS 578T breast = tested on: HS 578T breast
HT29 colon = tested on: HT29 colon
IGROV1 ovarian = tested on: IGROV1 ovarian
K-562 leukemia = tested on: K-562 leukemia
KM12 colon = tested on: KM12 colon
LOX IMVI melanoma = tested on: LOX IMVI melanoma
M14 melanoma = tested on: M14 melanoma
MALME-3M melanoma = tested on: MALME-3M melanoma
MCF7 breast = tested on: MCF7 breast
MDA-MB-231 breast = tested on: MDA-MB-231 breast
MDA-MB-435 = tested on: MDA-MB-435
MDA-MB-468 breast = tested on: MDA-MB-468 breast
MOLT-4 leukemia = tested on: MOLT-4 leukemia
NCI-H226 lung = tested on: NCI-H226 lung
NCI-H23 lung = tested on: NCI-H23 lung
NCI-H460 lung = tested on: NCI-H460 lung
NCI-H522 lung = tested on: NCI-H522 lung
NCI/ADR-RES ovarian = tested on: NCI/ADR-RES ovarian
OVCAR-3 ovarian = tested on: OVCAR-3 ovarian
OVCAR-4 ovarian = tested on: OVCAR-4 ovarian
OVCAR-5 ovarian = tested on: OVCAR-5 ovarian
OVCAR-8 ovarian = tested on: OVCAR-8 ovarian
PC-3 prostate = tested on: PC-3 prostate
RPMI-8226 leukemia = tested on: RPMI-8226 leukemia
RXF 393 renal = tested on: RXF 393 renal
SF-268 CNS = tested on: SF-268 CNS
SF-295 CNS = tested on: SF-295 CNS
SF-539 CNS = tested on: SF-539 CNS
SK-MEL-2 melanoma = tested on: SK-MEL-2 melanoma
SK-MEL-28 melanoma = tested on: SK-MEL-28 melanoma
SK-MEL-5 melanoma = tested on: SK-MEL-5 melanoma
SK-OV-3 ovarian = tested on: SK-OV-3 ovarian
SN12C renal = tested on: SN12C renal
SNB-19 CNS = tested on: SNB-19 CNS
SNB-75 CNS = tested on: SNB-75 CNS
SW-620 colon = tested on: SW-620 colon
T-47D breast = tested on: T-47D breast
TK-10 renal = tested on: TK-10 renal
U251 CNS = tested on: U251 CNS
UACC-257 melanoma = tested on: UACC-257 melanoma
UACC-62 melanoma = tested on: UACC-62 melanoma
UO-31 renal = tested on: UO-31 renal

Structure (SMILES): Cc1ccccc1[C@H]1C(C(=O)c2ccc(Cl)cc2)C2(N[C@@H]1c1ccccc1)C(=O)Nc1ccc(Cl)cc12 (stereo partly specified)
- GI50 (786-0 renal): 5.75 µM
- TGI (786-0 renal): 11.1 µM
- GI50 (A498 renal): 6.28 µM
- TGI (A498 renal): 12.5 µM
- GI50 (A549 NSCLC): 5.63 µM
- TGI (A549 NSCLC): 11.5 µM
- GI50 (ACHN renal): 5.89 µM
- TGI (ACHN renal): 11.1 µM
- GI50 (BT-549 breast): 5.49 µM
- TGI (BT-549 breast): 10.9 µM
- GI50 (CAKI-1 renal): 4.23 µM
- TGI (CAKI-1 renal): 9.47 µM
- GI50 (CCRF-CEM leukemia): 9.04 µM
- TGI (CCRF-CEM leukemia): 36.8 µM
- GI50 (COLO 205 colon): 5.56 µM
- TGI (COLO 205 colon): 10.9 µM
- GI50 (DU-145 prostate): 6.11 µM
- TGI (DU-145 prostate): 12.7 µM
- GI50 (EKVX NSCLC): 4.15 µM
- TGI (EKVX NSCLC): 8.85 µM
- GI50 (HCC-2998 colon): 5.38 µM
- TGI (HCC-2998 colon): 10.5 µM
- GI50 (HCT-116 colon): 5.04 µM
- TGI (HCT-116 colon): 10.2 µM
- GI50 (HCT-15 colon): 5.56 µM
- TGI (HCT-15 colon): 11.1 µM
- GI50 (HL-60(TB) leukemia): 9.94 µM
- TGI (HL-60(TB) leukemia): 24.2 µM
- GI50 (HOP-62 NSCLC): 5.88 µM
- TGI (HOP-62 NSCLC): 11.3 µM
- GI50 (HOP-92 NSCLC): 4.07 µM
- TGI (HOP-92 NSCLC): 9.11 µM
- GI50 (HS 578T breast): 6.79 µM
- TGI (HS 578T breast): 39.5 µM
- GI50 (HT29 colon): 5.58 µM
- TGI (HT29 colon): 11.4 µM
- GI50 (IGROV1 ovarian): 4.58 µM
- TGI (IGROV1 ovarian): 9.64 µM
- GI50 (K-562 leukemia): 7.49 µM
- TGI (K-562 leukemia): 36.4 µM
- GI50 (KM12 colon): 6.06 µM
- TGI (KM12 colon): 13.5 µM
- GI50 (LOX IMVI melanoma): 5.45 µM
- TGI (LOX IMVI melanoma): 10.5 µM
- GI50 (M14 melanoma): 6.5 µM
- TGI (M14 melanoma): 12.6 µM
- GI50 (MALME-3M melanoma): 5.63 µM
- TGI (MALME-3M melanoma): 10.9 µM
- GI50 (MCF7 breast): 4.47 µM
- TGI (MCF7 breast): 9.78 µM
- GI50 (MDA-MB-231 breast): 5.25 µM
- TGI (MDA-MB-231 breast): 10.4 µM
- GI50 (MDA-MB-435): 6.04 µM
- TGI (MDA-MB-435): 12.1 µM
- GI50 (MDA-MB-468 breast): 4.98 µM
- TGI (MDA-MB-468 breast): 10.1 µM
- GI50 (MOLT-4 leukemia): 4.93 µM
- TGI (MOLT-4 leukemia): 16.9 µM
- GI50 (NCI-H226 lung): 5.47 µM
- TGI (NCI-H226 lung): 11.2 µM
- GI50 (NCI-H23 lung): 5.54 µM
- TGI (NCI-H23 lung): 11.1 µM
- GI50 (NCI-H460 lung): 7.5 µM
- TGI (NCI-H460 lung): 19.5 µM
- GI50 (NCI-H522 lung): 5.52 µM
- TGI (NCI-H522 lung): 10.8 µM
- GI50 (NCI/ADR-RES ovarian): 5.64 µM
- TGI (NCI/ADR-RES ovarian): 11.4 µM
- GI50 (OVCAR-3 ovarian): 3.68 µM
- TGI (OVCAR-3 ovarian): 9.82 µM
- GI50 (OVCAR-4 ovarian): 5.74 µM
- TGI (OVCAR-4 ovarian): 13.7 µM
- GI50 (OVCAR-5 ovarian): 5.39 µM
- TGI (OVCAR-5 ovarian): 10.6 µM
- GI50 (OVCAR-8 ovarian): 6.41 µM
- TGI (OVCAR-8 ovarian): 14.5 µM
- GI50 (PC-3 prostate): 4.02 µM
- TGI (PC-3 prostate): 10.6 µM
- GI50 (RPMI-8226 leukemia): 8.18 µM
- TGI (RPMI-8226 leukemia): 30.2 µM
- GI50 (RXF 393 renal): 1.89 µM
- TGI (RXF 393 renal): 7.25 µM
- GI50 (SF-268 CNS): 4.74 µM
- TGI (SF-268 CNS): 12.1 µM
- GI50 (SF-295 CNS): 5.21 µM
- TGI (SF-295 CNS): 10.2 µM
- GI50 (SF-539 CNS): 6.2 µM
- TGI (SF-539 CNS): 11.7 µM
- GI50 (SK-MEL-2 melanoma): 5.31 µM
- TGI (SK-MEL-2 melanoma): 10.5 µM
- GI50 (SK-MEL-28 melanoma): 6.26 µM
- TGI (SK-MEL-28 melanoma): 11.8 µM
- GI50 (SK-MEL-5 melanoma): 6.09 µM
- TGI (SK-MEL-5 melanoma): 11.7 µM
- GI50 (SK-OV-3 ovarian): 5.88 µM
- TGI (SK-OV-3 ovarian): 12.2 µM
- GI50 (SN12C renal): 4.96 µM
- TGI (SN12C renal): 9.93 µM
- GI50 (SNB-19 CNS): 6.07 µM
- TGI (SNB-19 CNS): 11.6 µM
- GI50 (SNB-75 CNS): 4.37 µM
- TGI (SNB-75 CNS): 12.6 µM
- GI50 (SW-620 colon): 6.97 µM
- TGI (SW-620 colon): 20 µM
- GI50 (T-47D breast): 3.66 µM
- TGI (T-47D breast): 8.83 µM
- GI50 (TK-10 renal): 5.3 µM
- TGI (TK-10 renal): 10.6 µM
- GI50 (U251 CNS): 5.85 µM
- TGI (U251 CNS): 11.7 µM
- GI50 (UACC-257 melanoma): 5.82 µM
- TGI (UACC-257 melanoma): 11.6 µM
- GI50 (UACC-62 melanoma): 4.6 µM
- TGI (UACC-62 melanoma): 9.56 µM
- GI50 (UO-31 renal): 4.48 µM
- TGI (UO-31 renal): 9.28 µM

From PubChem BioAssay (NCI)
